pEC50: −log10 of the molar value.
Assay: Induction of rat oligodendrocyte progenitor cells differentiation assessed as myelin basic protein expression level
Type: functional

| Compound | pEC50 |
| --- | --- |
| CN1c2cc(F)ccc2CC12CCN(CC1CCOCC1)CC2 | 8.00 |
| O=C1c2cc(C(F)(F)F)ccc2NC12CCN(CC1CCOCC1)CC2 | 8.49 |
| FC(F)(F)c1ccc2c(c1)N(CC1CCOCC1)C1(CCN(CC3CCOCC3)CC1)C2 | 7.89 |
| COC1(CN2CCC3(CC2)Cc2ccc(C(F)(F)F)cc2N3C)CCOCC1 | 7.27 |
| CN1c2ccc(C(F)(F)F)cc2C(=O)C12CCN(CC1CCOCC1)CC2 | 8.03 |
| FC(F)(F)c1ccc2c(c1)CC1(CCN(CC3CCOCC3)CC1)N2 | 6.62 |
| CN1c2cc(C(F)(F)F)ccc2CC12CCN(CC1CCC(F)(F)CC1)CC2 | 8.33 |
| CN1c2cc(C(F)(F)F)ccc2CC12CCN(CC1CCOCC1)CC2 | 8.72 |
| FC(F)(F)c1ccc2c(c1)N(Cc1ccccc1)C1(CCN(CC3CCOCC3)CC1)C2 | 8.43 |
| CC(C)(C)OC(=O)CN1c2cc(C(F)(F)F)ccc2CC12CCN(CC1CCOCC1)CC2 | 7.82 |
| CN1c2ccc(C(F)(F)F)cc2CC12CCN(CC1CCOCC1)CC2 | 5.15 |
| CC(=O)N1c2cc(C(F)(F)F)ccc2CC12CCN(CC1CCOCC1)CC2 | 7.22 |
| COCCN1CCC2(CC1)Cc1ccc(C(F)(F)F)cc1N2C | 6.60 |
| O=C1c2ccc(C(F)(F)F)cc2NC12CCN(CC1CCOCC1)CC2 | 7.27 |
| CN1c2cc(C(F)(F)F)ccc2CC12CCN(CC1(O)CCOCC1)CC2 | 8.24 |
| COCCCN1CCC2(CC1)Cc1ccc(C(F)(F)F)cc1N2C | 6.62 |
| CN(C)C(=O)CN1c2cc(C(F)(F)F)ccc2CC12CCN(CC1CCOCC1)CC2 | 6.15 |
| CN1c2cc(C(F)(F)F)ccc2C(=O)C12CCN(CC1CCOCC1)CC2 | 8.85 |
| CN1c2cc(Cl)ccc2CC12CCN(CC1CCOCC1)CC2 | 7.72 |
| OCCN1c2cc(C(F)(F)F)ccc2CC12CCN(CC1CCOCC1)CC2 | 7.13 |
